Where no end group is shown, it is not given here.
Assays:
[1] = Heart function; conditions: in vivo
[2] = tested on: peritoneal macrophages; assay: qPCR of inflammatory genes in cultured peritoneal macrophages; assay type: cell-based, mice; conditions: LPS 100 ng/ml, 4 hr; both WT and Chga-KO macrophages
Experimental: Peritoneal macrophages were isolated after thioglycollate (3% solution in water) stimulation as described. Isolated macrophages were cultured in DMEM with 10% FBS for 48 hours with daily medium changes. Cells were then serum-starved overnight in DMEM with low FBS (0.5%) and then exposed to saline, PST (100 nM), or LPS (100 ng/ml) for 4 hours. At the end of incubation, the cultures were subjected to RNA extraction.
RNA from tissues was extracted using a kit (RNeasy Plus, Qiagen, Valencia, Calif.). After DNase digestion, 200 ng of RNA was transcribed into cDNA in a 20-μl reaction using a High Capacity cDNA Archive kit and this cDNA was amplified. PCR (25-μl reactions) contained 5 μl of cDNA, 2×SYBR Green PCR Master Mix, and 400 nM of each primer. Differences in the threshold cycle number (ΔCt) between the target gene, the housekeeping gene Gapdh and the ribosomal protein gene 36B4 were used to calculate differences in expression. Primer sequences are provided below.
As shown in FIGS. 18A-18H, PST promotes macrophage inflammation and chemotaxis. Peritoneal macrophages were isolated from WT-NCD and KO-NCD after thioglycollate injection. After 4-hr exposure to saline, LPS (100 ng/ml) or PST (100 nM), RNAs were extracted and cDNAs were prepared for qPCR analyses of Chga (FIG. 18A, n=8), iNos (FIG. 18B, n=8), Tnfα (FIG. 18C, n=8), Mcp-1 (FIG. 18D, n=8), IL-6 (FIG. 18E, n=8), IL-12p40 (FIG. 18F, n=8) and iNos genes (FIG. 18G, n=8). (FIG. 18H) Effects of PST on chemotaxis of activated macrophages from NCD-fed C57BL/6J mice (n=5). “*” Denotes comparison between the indicated groups. “*”: P<0.05, “**”: p<0.01, “***”: p<0.001.

Row | Substance | effects on heart function [1] | expression of iNos [2]
1 | KGEQEHSQQKEEEEEMAVVPQGLFRG-NH2 [PSTv1] | no adverse effects on heart function | –
2 | lipopolysaccharide [LPS] | – | ~100 fold
